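Each compound was tested at five concentrations against cells in 96-well plates for 48 hours. GI50 is the concentration that inhibits growth by half. TGI: concentration producing complete growth inhibition.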
Experiments:
Assay in all cases: NCI-60 cell line screen, 48 h
[1] = test system: HCT-116 colon
[2] = test system: HOP-62 NSCLC
[3] = test system: HOP-92 NSCLC
[4] = test system: HT29 colon
[5] = test system: NCI-H226 lung
[6] = test system: NCI-H522 lung
[7] = test system: SNB-75 CNS
[8] = test system: SR leukemia
[9] = test system: TK-10 renal
[10] = test system: U251 CNS

Row | Compound | GI50 [1] [µM] | TGI [1] [µM] | GI50 [2] [µM] | TGI [2] [µM] | GI50 [3] [µM] | TGI [3] [µM] | GI50 [4] [µM] | GI50 [5] [µM] | TGI [5] [µM] | GI50 [6] [µM] | GI50 [7] [µM] | TGI [7] [µM] | GI50 [8] [µM] | TGI [8] [µM] | GI50 [9] [µM] | TGI [9] [µM] | GI50 [10] [µM] | TGI [10] [µM] | TGI [4] [µM] | TGI [6] [µM]
1 | COc1cc([C@@H]2c3cc4c(cc3[C@H](SC(=N)N)[C@H]3COC(=O)[C@H]23)OCO4)cc(OC)c1OC | 0.197 | > 100 | 0.419 | > 100 | 37.1 | > 100 | 0.217 | 0.573 | > 100 | 0.125 | 0.477 | > 100 | 0.0897 | > 100 | 2.48 | > 78.9 | 0.311 | > 100 |  | 
2 | O=C1Nc2ccc(-c3cccnc3)cc2/C1=C/c1cc(Br)c(O)c(Br)c1 | 6.54 | > 25 | 8.43 | > 25 | 8.32 | > 25 | 7.06 | 8.43 | > 25 | 4.38 | > 13 | > 25 | 8.24 | > 25 | 7.82 | 24.3 | 6.11 | > 25 | > 25 | 13.7
3 | OCc1ccc(-c2ccc(-c3ccc(CO)o3)o2)o1 | > 88.9 | > 100 | 27.1 | > 78 | > 49.6 | > 100 | > 85.9 | 0.576 | 2.59 | > 100 | 23.2 | 79.7 | > 100 | > 100 | 2.63 | 19.8 | 39.1 | > 100 | > 100 | > 100
4 | C#COc1cccc(Nc2ncnc3cc(NC(=O)[C@@H](C)Cl)ccc23)c1 | 2.98 | > 62.5 | 8.18 | > 62.5 | > 62.5 | > 62.5 | 2.41 | 50.1 | > 62.5 | 3.96 | 8.03 | 44.8 | 3.08 | > 62.5 | 36.5 | > 62.5 | 7.29 | > 62.5 | > 62.5 | 40.8
5 | C[n+]1cn(CC(=O)c2ccccc2)c(C(N)=O)c1N |  | 74.1 |  | > 100 |  | > 100 |  |  | > 100 |  |  | > 100 |  | > 100 |  | > 100 |  | > 100 | > 100 | > 100
6 | O=C(Nc1ccc(-n2cc(-c3ccncc3)c(-c3ccc(Cl)c(O)c3)n2)cc1)c1cc(C(F)(F)F)cc(C(F)(F)F)c1 | 4.72 | 17.5 | 2.11 | 5.58 | 3.89 | 26.2 | 3.43 | 3.63 | 18.8 | 14 | 2.82 | 28.2 | 9.51 | > 100 | 7.55 | 23 | 4.91 | 22 | 28.9 | 57.7
7 | CN(C)CCCOc1ccc(NC2=C(Cl)C(=O)C(Nc3ccc(OCCCN(C)C)cc3)=C(Cl)C2=O)cc1 | 0.183 | 0.368 | 1.83 | 3.31 | 0.567 | 1.08 | 0.237 | 1.92 | 3.83 | 0.236 | 1.78 | 3.4 | 0.312 | 3.25 | 1.99 | 3.41 | 1.53 | 2.94 | 0.657 | 0.602
8 | CC(=O)Nc1cccc(C#Cc2cncnc2Nc2ccc(OCc3cccc(F)c3)c(Cl)c2)c1 | 9.1 | > 25 | > 19.8 | > 25 | 4.05 | > 22.5 | 7.89 | 10 | > 25 | 4.47 | 13.2 | > 25 | > 18.7 | > 25 | 1.6 | 16.3 | 11.8 | > 25 | > 25 | 23.9
9 | S=C(Sc1ccc(Cl)cc1)Sc1ccc(Cl)cc1 | 1.82 | 3.53 | 3.39 | 7.58 | 1.99 | 5.01 | 1.95 | 2.1 | 4.84 | 1.11 | 3.5 | 16.3 | 0.362 | 2.03 | 2.53 | 5.27 | 2.64 | 8.92 | 3.99 | 2.33
10 | N#CN1CC[C@H](C(=O)Nc2ncc(-c3ccccc3)s2)C1 | 0.323 | 2.18 | 1.37 | 4.21 | 0.662 | 4.25 | 0.313 | 0.693 | 4.19 | 0.205 | 0.374 | 2.69 | 0.222 | 1.29 | 1.19 | 2.99 | 0.545 | 5.15 | 1.82 | 0.547
11 | O=[N+]([O-])c1cccnc1S(=O)(=O)c1ccccc1 |  | 21.6 |  | 32.8 |  | 3.64 |  |  | 34.7 |  |  | 35.9 |  | > 100 |  | 22.2 |  | 22.8 | 14.3 | 2.82
12 | CC(C)(C)C1=NO[C@H]2[C@@H](NC(=O)c3ccccc3)CC[C@@H]12 |  | > 100 |  | > 100 |  | > 100 |  |  | > 100 |  |  | > 100 |  | > 100 |  | > 100 |  | > 100 | > 100 | > 100
13 | CNC(=O)OCc1nc(SSc2nc(COC(=O)NC)c(COC(=O)NC)n2C)n(C)c1COC(=O)NC |  | > 100 |  | > 100 |  | > 100 |  |  | > 100 |  |  | > 100 |  | > 100 |  | > 100 |  | > 100 | > 100 | > 100
14 | O=c1[nH]c(=S)[nH]c(O)c1/C=C1\C=Nc2ccccc21 | 2.49 | 10.1 | 3.66 | 38.4 | 3.36 | 27.3 | 3.37 | 12.5 | 46.1 | 16.9 | 1.73 | 5 | 1.72 | 4.52 | 25.1 | > 100 | 2.11 | 5.87 | 10.6 | 54.4
15 | Cn1cc(-c2ccc3ncc(-c4ccc(CC(=O)Nc5cc(C(C)(C)C)nn5C)cc4)cc3c2)cn1 | 0.887 | > 20 | 3.96 | > 20 | 2.45 | > 20 | 3.99 | 1.05 | 13.3 | 0.995 | 0.37 | > 20 | 0.967 | > 20 | 1.52 | > 20 | 2.11 | > 20 | > 20 | 9.06
